Molecules are shown by their SMILES. ≈ marks a conversion by molar mass, not a printed value. Bounds are passed on as bounds.

Common to all, as to assay type: functional, organism-based
Experiment [1] has as its system Plasmodium falciparum. Kind of experiment: Inhibitory concentration IC50 against chloroquine-resistant falciparum indochina(W-2) malaria in humans; 7079-48759.
Experiment [2] deals with Plasmodium falciparum. Kind of experiment: Inhibitory concentration (IC50) against chloroquine-sensitive falciparum sierra leone […] in human malaria; 10000-46608.
For experiment [3], the system named is Plasmodium falciparum. The experiment in a line: Inhibitory concentration (IC50) against chloroquine-resistant falciparum Indochina W2 in human malaria.
In experiment [4] the test system is Plasmodium falciparum. The experiment in a line: Inhibitory concentration (IC50) against chloroquine-sensitive falciparum sierra leone […] in human malaria.
The test system of experiment [5] is Plasmodium falciparum. Kind of experiment: Inhibitory concentration (IC50) against chloroquine-sensitive falciparum sierra leone […] in human malaria; 979-50000.
Experiment [6] concerns Plasmodium falciparum. The experiment in a line: Inhibitory concentration (IC50) against chloroquine-resistant falciparum indochina W-2 in human malaria; 60-50000.
Experiment [7] has as its system Plasmodium falciparum. Kind of experiment: Inhibitory concentration (IC50) against chloroquine-sensitive falciparum sierra leone […] in human malaria; 9569-21648.
The subject of experiment [8] is Plasmodium falciparum. Kind of experiment: Inhibitory concentration IC50 against chloroquine-resistant falciparum W-2 indochina human malaria; 8000-18088.
Setting [9] is: Plasmodium falciparum, read-out: IC50.

The term IC50 denotes the concentration needed to halve the response being measured. Consider `CO[C@]1(C)CC[C@@H](OO)CO1`, for which the values for the IC50 in the experiment on Plasmodium falciparum [1] and in the experiment with Plasmodium falciparum [2] were 7.08 mg/L (≈ 43.6 µM) and 10 mg/L (≈ 61.7 µM), respectively.
In the case of `CC12CCC(CO1)OO2` (stereo unspecified), the IC50 in the experiment on Plasmodium falciparum [3] was more than 100 mg/L; with Plasmodium falciparum [4], 50 mg/L (≈ 384 µM).
Take `C1CC2OCC1OO2` (stereo unspecified): the concentration for half-maximal inhibition (IC50) came out at 0.979 mg/L (≈ 8.43 µM) with Plasmodium falciparum [5] and 0.06 mg/L (≈ 0.517 µM) in the experiment with Plasmodium falciparum [6].
Consider `COC1CC[C@@H]([C@H](C)O)OO1` (stereo partly specified), for which the IC50 was 12.3 mg/L (≈ 75.7 µM) with Plasmodium falciparum [3] (setting [9]) and 7.35 mg/L (≈ 45.3 µM) with Plasmodium falciparum [4].
The corresponding values for `COC1CCC(CO)OO1` (stereo unspecified) are 0.454 mg/L (≈ 3.06 µM) and 0.531 mg/L (≈ 3.58 µM).
`C[C@@H]1OC2CCC1OO2` (stereo partly specified): the IC50 worked out at 28.8 mg/L (≈ 222 µM) in the experiment with Plasmodium falciparum [3] (setting [9]) and 28.5 mg/L (≈ 219 µM) in the experiment with Plasmodium falciparum [4].
The corresponding values for `C[C@H]1OC2CCC1OO2` (stereo partly specified) are 13.1 mg/L (≈ 101 µM) and 8.46 mg/L (≈ 65 µM).
In the same order, the values of `COC1CCC(OO)CO1` (stereo unspecified) are 1.05 mg/L (≈ 7.06 µM) and 0.472 mg/L (≈ 3.19 µM).
Consider `CO[C@H]1CC[C@@H](OO)[C@@H](C)O1`, for which the IC50 in the experiment on Plasmodium falciparum [7] was determined as 9.57 mg/L (≈ 59 µM); in the experiment with Plasmodium falciparum [8], 8 mg/L (≈ 49.3 µM).
Regarding `CO[C@H]1CC[C@H](OO)[C@@H](C)O1`, the IC50 with Plasmodium falciparum [3] (setting [9]) amounted to 3.44 mg/L (≈ 21.2 µM); with Plasmodium falciparum [4] it was 1.01 mg/L (≈ 6.2 µM).
In the experiment with Plasmodium falciparum [4], `C[C@@H]1CC[C@H]2[C@@H](C)C(=O)O[C@@H]3O[C@@]4(C)CC[C@@H]1[C@]32OO4` [ARTEMISININ] yielded an IC50 of 0.00202 mg/L (≈ 0.00715 µM).

Values taken from ChEMBL document CHEMBL1152074, “Synthesis and antimalarial evaluation of 2,3,5-trioxabicyclo[2.2.2]octanes, models for the putative pharmacophore of qinghaosu (artemisinin)” (Bioorg Med Chem Lett, 1992).
